GI50 and TGI data for 14 compounds are collected here from PubChem BioAssay (NCI).

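96-well plates; 48 h exposure; 5 concentrations. Endpoints by linear interpolation between flanking doses. Not reached: highest tested concentration assigned. Here, GI50 denotes the concentration required for 50% inhibition of growth. TGI: total growth inhibition.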

Among the test systems are SF-268 CNS; OVCAR-4 ovarian; CCRF-CEM leukemia; M14 melanoma; MDA-MB-435; UACC-62 melanoma; MOLT-4 leukemia; HL-60(TB) leukemia; SN12C renal; RPMI-8226 leukemia.
What all share (test): NCI tumour cell line growth inhibition, 48 h

Regarding `OC1CSSC1Cn1cnc2c(Nc3ccc(OCc4cccc(F)c4)c(Cl)c3)ncnc21` (stereo not drawn), the GI50 in the test on SF-268 CNS was 0.56 µM; in the test with OVCAR-4 ovarian, 1.27 µM; in the test with CCRF-CEM leukemia, 0.656 µM; in the test with M14 melanoma, 0.0912 µM; in the test on MDA-MB-435, 0.35 µM; in the test with UACC-62 melanoma it was 0.971 µM. For the same compound, the GI50 in the test on MOLT-4 leukemia was 0.441 µM; in the test on HL-60(TB) leukemia, 3.47 µM; with SN12C renal, 4.02 µM; in the test on RPMI-8226 leukemia it was 1.06 µM. Moreover, the TGI in the test with SF-268 CNS was determined as 2.9 µM; in the test on OVCAR-4 ovarian, 8.53 µM; in the test with CCRF-CEM leukemia it was 13.9 µM; in the test with M14 melanoma, 0.288 µM; in the test with MDA-MB-435, 0.788 µM; in the test on UACC-62 melanoma, 2.71 µM. Also, the TGI in the test with MOLT-4 leukemia came to 1.38 µM; with HL-60(TB) leukemia it was 20.8 µM; in the test with SN12C renal, 9.5 µM; in the test on RPMI-8226 leukemia it was 3.74 µM.
As to `Fc1[nH]nc2ccc([C@@H]3Nc4ccc5[nH]ncc5c4[C@H]4C5CCC(C5)[C@@H]34)cc12` (stereo partly drawn), the GI50 was 2.59 µM in the test on SF-268 CNS; 4.51 µM in the test on OVCAR-4 ovarian; 0.514 µM in the test with CCRF-CEM leukemia; 0.514 µM in the test with M14 melanoma; 0.286 µM with MDA-MB-435; 0.849 µM in the test on UACC-62 melanoma. Moreover, the GI50 in the test on MOLT-4 leukemia was 0.651 µM; with HL-60(TB) leukemia, 0.348 µM; in the test on SN12C renal it was 1.99 µM; with RPMI-8226 leukemia it was 1.42 µM. The TGI turned out to be 19.8 µM in the test with SF-268 CNS; 17.8 µM in the test on OVCAR-4 ovarian; 16.5 µM with CCRF-CEM leukemia; 11.7 µM in the test on M14 melanoma; 1.08 µM in the test with MDA-MB-435; 13.2 µM in the test on UACC-62 melanoma. The TGI in the test on MOLT-4 leukemia amounted to 12.7 µM; in the test on HL-60(TB) leukemia, 1.69 µM; in the test with SN12C renal, 18.1 µM; in the test with RPMI-8226 leukemia, 16.7 µM.
As for `NC(N)=NS(=O)(=O)c1ccc(Nc2c3ccccc3nc3c(C(=O)NCCO)cccc23)cc1`, the GI50 in the test on SF-268 CNS was 16.3 µM; in the test on OVCAR-4 ovarian it was 25.3 µM; in the test on CCRF-CEM leukemia it was 19.9 µM; in the test on M14 melanoma, 26.3 µM; in the test with MDA-MB-435, 23.3 µM; with UACC-62 melanoma, 18.1 µM. Further, the GI50 in the test on MOLT-4 leukemia was 4.78 µM; in the test on HL-60(TB) leukemia, 16.9 µM; in the test with SN12C renal it was 26.7 µM; in the test with RPMI-8226 leukemia, 15 µM. Further, in the test with CCRF-CEM leukemia, the TGI is more than 100 µM.
On to `Cc1ccc(Cl)c2c(N=Nc3ccccc3[N+](=O)[O-])c(O)[nH]c12`, for which the TGI with SF-268 CNS is more than 100 µM; in the test with OVCAR-4 ovarian, more than 100 µM; in the test on CCRF-CEM leukemia, more than 100 µM; in the test on M14 melanoma, more than 100 µM; in the test on MDA-MB-435, 35.3 µM; in the test on UACC-62 melanoma, more than 100 µM. Besides, the TGI in the test with MOLT-4 leukemia, in the test on HL-60(TB) leukemia, with SN12C renal and in the test on RPMI-8226 leukemia was more than 100 µM in each case.
On to `COc1cc2c(cc1OCCCCN1CCN(CC(=O)Nc3ccc(Cl)cc3C(=O)c3ccccc3Cl)CC1)N=CC1CCCN1C2=O` (stereo not drawn), for which the GI50 with SF-268 CNS is 0.268 µM; with OVCAR-4 ovarian, 0.262 µM; in the test with CCRF-CEM leukemia, 0.159 µM; with MDA-MB-435, 0.188 µM; in the test with UACC-62 melanoma it was 0.186 µM; with MOLT-4 leukemia it was 0.209 µM. The GI50 in the test on HL-60(TB) leukemia is 0.273 µM; in the test on SN12C renal, 0.297 µM; in the test with RPMI-8226 leukemia it was 0.0573 µM. Further, the TGI was found to be 0.711 µM with SF-268 CNS; 0.962 µM in the test with OVCAR-4 ovarian; 0.434 µM in the test on CCRF-CEM leukemia; 0.367 µM in the test on MDA-MB-435; 0.355 µM with UACC-62 melanoma; 0.512 µM in the test with MOLT-4 leukemia. In addition, the TGI in the test with SN12C renal came to 1.14 µM; in the test with RPMI-8226 leukemia it was 0.173 µM.
Take `Cc1ccsc1C(=S)Nc1ccc(Cl)c(/C=N/OC(C)(C)C)c1`: the TGI with SF-268 CNS, in the test on OVCAR-4 ovarian, with CCRF-CEM leukemia, with M14 melanoma, in the test on MDA-MB-435 and in the test with UACC-62 melanoma was more than 100 µM in each case. Further, the TGI in the test with MOLT-4 leukemia is more than 100 µM; with HL-60(TB) leukemia, 74.7 µM; in the test on SN12C renal, more than 100 µM; in the test on RPMI-8226 leukemia it was more than 100 µM.
Turning to `C=CCOc1ccc2c(C)cc(=O)oc2c1C`, the TGI in the test on SF-268 CNS, with OVCAR-4 ovarian, with CCRF-CEM leukemia, in the test on M14 melanoma, in the test with MDA-MB-435 and in the test on UACC-62 melanoma was more than 100 µM in each case. Also, the TGI in the test on MOLT-4 leukemia, in the test on HL-60(TB) leukemia, with SN12C renal and with RPMI-8226 leukemia was more than 100 µM throughout.
Consider `O=C1/C(=C/c2ccc(O)c(O)c2)CCC/C1=C\c1ccc(O)c(O)c1`, for which the TGI is 14.7 µM in the test on SF-268 CNS; 41.9 µM in the test with OVCAR-4 ovarian; more than 25.4 µM in the test on CCRF-CEM leukemia; 18.4 µM in the test on M14 melanoma; 16.7 µM in the test on MDA-MB-435; 30.2 µM in the test on UACC-62 melanoma. The TGI was more than 44 µM in the test on MOLT-4 leukemia, more than 27.9 µM in the test with HL-60(TB) leukemia, 24.9 µM in the test on SN12C renal and more than 44.7 µM in the test with RPMI-8226 leukemia.
On to `COC(=O)/C=C1\S/C(=N\NC(=O)c2cc3ccc2/C=C\c2ccc(cc2)/C=C\3)N(c2ccccc2)C1=O`, for which the GI50 was 3.09 µM in the test with SF-268 CNS; 3.17 µM in the test on OVCAR-4 ovarian; 3.27 µM with M14 melanoma; 5.44 µM in the test on MDA-MB-435; 1.96 µM in the test on UACC-62 melanoma; 3.12 µM with MOLT-4 leukemia. Further, the GI50 in the test on HL-60(TB) leukemia was 2.7 µM; in the test with SN12C renal, 2.27 µM; in the test with RPMI-8226 leukemia it was 2.15 µM. For the same compound, the TGI was 11.2 µM in the test with SF-268 CNS; 9.88 µM with OVCAR-4 ovarian; 15.4 µM with M14 melanoma; more than 100 µM with MDA-MB-435; 4.21 µM with UACC-62 melanoma; more than 100 µM in the test with MOLT-4 leukemia. Besides, the results for the TGI in the test on HL-60(TB) leukemia, in the test on SN12C renal and in the test on RPMI-8226 leukemia were more than 100 µM, 5.94 µM and 5.69 µM, respectively.
On to `CCN1/C(=C\c2cc[n+](CC)c3ccccc23)C=Cc2ccccc21`, for which the GI50 with SF-268 CNS is 0.291 µM; in the test on OVCAR-4 ovarian it was 0.0559 µM; with CCRF-CEM leukemia it was 0.0859 µM; in the test on M14 melanoma, 0.302 µM; in the test on MDA-MB-435 it was 0.109 µM; in the test on UACC-62 melanoma, 0.179 µM. The GI50 was 0.207 µM in the test on MOLT-4 leukemia, 0.123 µM in the test with HL-60(TB) leukemia, 0.233 µM with SN12C renal and 0.0503 µM in the test on RPMI-8226 leukemia. In addition, the TGI with SF-268 CNS was determined as 13.2 µM; with OVCAR-4 ovarian, 12.2 µM; in the test with CCRF-CEM leukemia, 13.4 µM; in the test on M14 melanoma, 2.47 µM; in the test on MDA-MB-435, 1.16 µM; in the test on UACC-62 melanoma, 1.27 µM. In addition, the TGI in the test with MOLT-4 leukemia is 4.44 µM; with HL-60(TB) leukemia, 0.82 µM; in the test on SN12C renal it was 11.9 µM; with RPMI-8226 leukemia it was 0.753 µM.
As to `O=C1NC(=NCCc2cccc(F)c2)S/C1=C\c1ccc2ncccc2c1`, the GI50 in the test on SF-268 CNS was 10.7 µM; in the test on OVCAR-4 ovarian, more than 25 µM; in the test with CCRF-CEM leukemia it was 1.15 µM; with M14 melanoma it was 3.6 µM; with MDA-MB-435, 0.312 µM; with UACC-62 melanoma it was 5.41 µM. Also, the GI50 in the test on MOLT-4 leukemia is 8.72 µM; in the test on HL-60(TB) leukemia, 2.08 µM; in the test with SN12C renal it was more than 16 µM; with RPMI-8226 leukemia it was 1.73 µM. The TGI was more than 25 µM with SF-268 CNS; more than 25 µM in the test on OVCAR-4 ovarian; more than 25 µM with CCRF-CEM leukemia; more than 25 µM in the test on M14 melanoma; 1.19 µM in the test on MDA-MB-435; more than 25 µM with UACC-62 melanoma. Besides, the TGI in the test on MOLT-4 leukemia was more than 25 µM; with HL-60(TB) leukemia, more than 12.9 µM; in the test with SN12C renal, more than 25 µM; in the test with RPMI-8226 leukemia it was more than 25 µM.
Turning to `Cc1ccc2c(C)c3c(ccc4ccccc43)c[n+]2c1`, the GI50 is 2.87 µM in the test on SF-268 CNS; 5.21 µM in the test with OVCAR-4 ovarian; 8.89 µM in the test on CCRF-CEM leukemia; 14.1 µM in the test with M14 melanoma; 9.55 µM in the test with MDA-MB-435; 8.88 µM in the test with UACC-62 melanoma. For the same compound, the GI50 with MOLT-4 leukemia is 5.54 µM; in the test on HL-60(TB) leukemia it was 21.5 µM; with SN12C renal it was 2.18 µM; in the test with RPMI-8226 leukemia, 4.92 µM. In addition, the TGI was 15.9 µM with SF-268 CNS; 41.7 µM with OVCAR-4 ovarian; 38.9 µM with CCRF-CEM leukemia; 31.7 µM in the test on M14 melanoma; 24.4 µM in the test on MDA-MB-435; 22 µM in the test on UACC-62 melanoma. The TGI with MOLT-4 leukemia is 28.4 µM; in the test on HL-60(TB) leukemia it was 55.8 µM; in the test on SN12C renal, 18.2 µM; in the test with RPMI-8226 leukemia, 41.2 µM.
On to `Cc1ccnc2c1ccc1c(C)ccnc12`, for which the GI50 is 0.454 µM in the test on SF-268 CNS; 0.316 µM with OVCAR-4 ovarian; 0.361 µM in the test on CCRF-CEM leukemia; 0.294 µM in the test with M14 melanoma; 0.481 µM in the test with MDA-MB-435; 0.288 µM with UACC-62 melanoma. Besides, the GI50 was 0.328 µM in the test with HL-60(TB) leukemia, 0.441 µM in the test with SN12C renal and 0.468 µM in the test with RPMI-8226 leukemia. Also, the TGI in the test with SF-268 CNS stood at 14.6 µM; with OVCAR-4 ovarian it was 4.23 µM; in the test on CCRF-CEM leukemia it was 3 µM; with M14 melanoma, 10.2 µM; with MDA-MB-435 it was 13.1 µM; in the test on UACC-62 melanoma, 1.03 µM. The values for the TGI in the test with HL-60(TB) leukemia, in the test with SN12C renal and with RPMI-8226 leukemia were 2.39 µM, 13.1 µM and 14.3 µM, respectively.
Consider `CO/C(=N\N=C\c1ccc(C(F)(F)F)cc1)c1ccncc1`, for which the TGI in the test with SF-268 CNS, with OVCAR-4 ovarian, with CCRF-CEM leukemia, in the test on M14 melanoma, in the test on MDA-MB-435 and in the test with MOLT-4 leukemia was more than 10 µM each time. The TGI in the test with HL-60(TB) leukemia, in the test with SN12C renal and in the test on RPMI-8226 leukemia was more than 10 µM throughout.
